Assay results published in patent US8871452B2, “Methods for treatment of cardiovascular disease” (The Brigham and Women's Hospital, Inc., priority 2000, dated 2014).
“Also recorded” adds a separate entry of the source. Numbered stars: 1 amine (or outer) side, 2 acyl side, 3 side chain; on linkers, the order of the positions; unused ones are H or OH. Bridge positions count the residues as written; N and C are the ends. Square brackets hold non-standard residues; d marks the D form. Peptide text beside a SMILES is read from it. I, II: the chains in the order shown. Actinocin(9to1) = Cc1c2oc3c(C)ccc(C(=O)[*:1])c3nc-2c(C(=O)[*:2])c(N)c1=O; NMeV = CN[C@H](C(=O)O)C(C)C; Sar = CNCC(=O)O

Assays:
Fit-1 mRNA expression = assay: Northern blot of Fit-1 (T1/ST2) mRNA induction in cultured neonatal rat cardiac myocytes, with or without 8% cyclic mechanical strain; format: cell-based; conditions: for induction of Fit-1 mRNA expression by 8% mechanical strain: FIG. 4, applied during strain, actinomycin D 5 μg/ml (2 and 4 hours), cyclohexamide 10 μg/ml; for strain-induced induction of Fit-1 mRNA expression / Fit-1 mRNA expression in the absence of strain: FIG. 3, H2O2 100 uM, TIRON 10 mN; for strain-induced induction of Fit-1 mRNA expression: 8% mechanical strain; for induction of Fit-1 mRNA expression in the absence of mechanical strain: FIG. 2, 3 hours, Ang II 50 nM; for induction of Fit-1 mRNA expression in the absence of mechanical strain / rank order potency for the induction of Fit-1 mRNA expression / induction of Fit-1 mRNA expression, agent alone: IL-1β 10 ng/ml; for induction of Fit-1 mRNA expression in the absence of mechanical strain / rank order potency for the induction of T1/ST2 mRNA expression: PMA 200 nM; for rank order potency for the induction of Fit-1 mRNA expression: 8% strain; for rank order potency for the induction of Fit-1 mRNA expression / induction of Fit-1 mRNA expression, agent alone: PMA 100 ng/ml; for induction of Fit-1 mRNA expression, agent alone: no strain; for rank order potency for the induction of T1/ST2 mRNA expression: strain 8%
Excerpt: The approach to mechanical stimulation used an apparatus that has multiple platens that contact the underside of silicone elastomer membranes to apply a spatially isotropic biaxial strain profile to the membrane (Schaffer J L, et al., J Orthop Res, 1993, 12:709-719; and U.S. Provisional Patent Application Ser. No. 60/144,134 filed on Jul. 16, 1999 entitled “AN APPARATUS FOR STUDYING MYOCARDIAL MECHANICAL OVERLOAD HYPERTROPHY AND USES THREFOR, by Richard T. Lee, and bearing and express mail no. EL110243781US). Six individual 78 mm membranes can be stretched at once with varying amplitudes of strain by controlling displacement of each platen with a stepper motor. Measured Green strains are accurate to ˜±0.25% at strains from 1-14% (Cheng G C, et al., Circ Res, 1997, 80:28-36; Brown T D, J Biomechanics, 2000, 33:3-14). Throughout this study, 8% biaxial strain was used.
Neonatal rat ventricular myocytes (NRVM) from 1-day old Sprague-Dawley rats were isolated by previously described methods (Springhorn J P, and Claycomb W C., Biochem J, 1989; 258:73-78; Arstall M A, et al., J Mol Cell Cardiol, 1998, 30:1019-25). NRVM were plated on the coated membrane dish at a density of 2,000,000 cells/dish in DMEM containing 7% FCS and incubated 24 h. Approximate cell confluence was 85-90%. NRVM were then made quiescent by washing with 10 ml of Hanks' balanced salt solution (HBSS, 138 mM NaCl, 5.3 mM KCl, 4.0 mM NaHCO3, 1.3 mM CaCl2, 0.5 mM MgCl2, 0.4 mM MgSO4, 0.4 mM KH2PO4, 0.3 mM Na2HPO4, 5.6 mM glucose; Life Technologies, Inc., Rockville, Md.) twice and incubating with 26 ml of DMEM containing 0.2% FCS for 48-72 hours.
The cDNA clones for differentially expressed genes were obtained by PCR using the GenBank sequences. Each clone was sequenced from both 5′ and 3′ ends to confirm identity. Positive elements in the DNA microarray were confirmed by Northern blot hybridization analysis in at least three independent experiments using three different sources of NRVMs. Total RNA was isolated by the guanidium thiocyanate and phenol chloroform method (Chomcyznski, et al., Anal. Biochem., 1987, 162:156-159). For Northern blotting, 15 μg RNA was loaded on a 1.0% agarose-formaldehyde gel (2.0 mol/l), transferred to a nylon membrane (Amersham Pharmacia Biotech AB, Piscataway, N.J.), and UV cross-linked with a UV Stratalinker (Stratagene, Inc., La Jolla, Calif.). Each probe was hybridized with ExpressHyb solution (Clontech Labs., Inc., Palo Alto, Calif.) at 68° C. for 1 hour. The membrane was washed with 2×SSC, 0.05% SDS solution for 30 to 40 minutes and three times at room temperature and 0.1×SSC, 0.1% SDS solution with continuous shaking at 50° C. for 40 minutes. The membrane was exposed to film at −80° C., and radiographs were scanned and analyzed with Optimas 5.0 software (Optimas Co./Media Cybernetics, Silver Springs, Md.). Densitometric units were normalized to the ethidium-stained 28S ribosomal subunit on the membrane.
T1/ST2 mRNA is induced by mechanical strain in cultured neonatal cardiac myocytes. Neonatal rat ventricular myocytes were isolated by collagenase digestion, plated on fibronectin-coated silicone membrane dishes at a density of 3.5 million cells/dish in 13 ml media as previously described (Yamamoto K, et al. J Biol Chem. 1999; 274:21840-21846). This technique yields cultures with ≧95% myocytes. Mechanical deformation was applied using a device that provides uniform biaxial cyclic strain as previously described (Yamamoto K, et al. J Biol Chem. 1999; 274:21840-21846). RNA was extracted (Qiagen) and Northern blotting was performed using as a probe a ^32P-labelled 600 bp PCR fragment specific to rat T1/ST2. Maximal induction occurs at 3 hours, is sustained for 9 hours and declines by 15 hours.

T1/ST2 mRNA = T1/ST2 mRNA induction in human adult vascular smooth muscle cells; format: cell-based
[1] = FIG. 9, interleukin-1 10 ng/ml, 1 and 3 hours

Cc1c2oc3c(C)ccc(C(=O)N[C@@H]4C(=O)N[C@H](C(C)C)C(=O)N5CCC[C@H]5C(=O)N(C)CC(=O)N(C)[C@@H](C(C)C)C(=O)O[C@@H]4C)c3nc-2c(C(=O)N[C@@H]2C(=O)N[C@H](C(C)C)C(=O)N3CCC[C@H]3C(=O)N(C)CC(=O)N(C)[C@@H](C(C)C)C(=O)O[C@@H]2C)c(N)c1=O [Actinomycin D, actinomycin D] (I: T[dV]P[Sar][NMeV] / II: T[dV]P[Sar][NMeV]; ester I:1-I:C, II:1-II:C; linker I:N-II:N via Actinocin(9to1))
induction of Fit-1 mRNA expression by 8% mechanical strain (Fit-1 mRNA expression): blocked

OO [H2O2, hydrogen peroxide]
strain-induced induction of Fit-1 mRNA expression (Fit-1 mRNA expression): blocks
Fit-1 mRNA expression in the absence of strain (Fit-1 mRNA expression): does not induce

CCCCCCCCCCCCCC(=O)O[C@@H]1[C@@H](C)[C@@]2(O)[C@@H](C=C(CO)C[C@]3(O)C(=O)C(C)=C[C@@H]23)[C@@H]2C(C)(C)[C@]12OC(C)=O [PMA]
induction of T1/ST2 mRNA (T1/ST2 mRNA): not
induction of Fit-1 mRNA expression in the absence of mechanical strain (Fit-1 mRNA expression): associated with an induction
rank order potency for the induction of Fit-1 mRNA expression (Fit-1 mRNA expression; FIG. 5): PMA>strain>IL-1β
induction of Fit-1 mRNA expression, agent alone (Fit-1 mRNA expression; FIG. 5): strongest induction
rank order potency for the induction of T1/ST2 mRNA expression (Fit-1 mRNA expression; [1]): PMA>strain>interleukin-1β; also recorded: PMA>strain>IL-1

O=S(=O)(O)c1cc(O)c(O)c(S(=O)(=O)O)c1 [TIRON]
strain-induced induction of Fit-1 mRNA expression (Fit-1 mRNA expression): slightly attenuated
Fit-1 mRNA expression in the absence of strain (Fit-1 mRNA expression): slightly attenuated

C[C@@H]1C[C@@H]([C@H](O)CC2CC(=O)NC(=O)C2)C(=O)[C@@H](C)C1 [cyclohexamide]
induction of Fit-1 mRNA expression by 8% mechanical strain (Fit-1 mRNA expression): blocked

IL-1β: interleukin-1β, cytokine
induction of T1/ST2 mRNA (T1/ST2 mRNA): induced
induction of T1/ST2 RNA, agent alone (Fit-1 mRNA expression): induce
induction of Fit-1 mRNA expression in the absence of mechanical strain (Fit-1 mRNA expression): associated with an induction
induction of Fit-1 by mechanical strain in the presence of IL-1β (Fit-1 mRNA expression; FIG. 5, 8% strain plus IL-1β 10 ng/ml): not further increased
rank order potency for the induction of Fit-1 mRNA expression (Fit-1 mRNA expression; FIG. 5): PMA>strain>IL-1β
induction of Fit-1 mRNA expression, agent alone (Fit-1 mRNA expression; FIG. 5): induced
induction of T1/ST2 by mechanical strain in the presence of interleukin-1β (Fit-1 mRNA expression; FIG. 9, 8% strain plus interleukin-1 10 ng/ml, 1 and 3 hours): not further increased
rank order potency for the induction of T1/ST2 mRNA expression (Fit-1 mRNA expression; [1]): PMA>strain>interleukin-1β
rank order potency for the induction of T1/ST2 mRNA expression (Fit-1 mRNA expression; FIG. 9, interleukin-1 10 ng/ml, 1 and 3 hours, listed as IL-1): PMA>strain>IL-1
induction of T1/ST2 mRNA in the presence of infection with control adenovirus (Fit-1 mRNA expression; FIG. 10, interleukin-1 10 ng/ml, 4 hours): induced

angiotensin II (DRVYIHPF; Angiotensin-2; UniProt P01019 25-32, looked up)
induction of Fit-1 mRNA expression in the absence of mechanical strain (Fit-1 mRNA expression): did not induce

tumor necrosis factor
induction of T1/ST2 mRNA (T1/ST2 mRNA): not
